Columns and labels:
Test in all cases: radiometric filter-binding kinase assay, Kinase HotSpot
Conditions in all cases: compound 0.5 µM; ATP 10 µM
[1] = molecular target: ACVRL1 (human) (UniProt P37023)
[2] = molecular target: AKT1 (human) (UniProt P31749)
[3] = molecular target: ALK (human) (UniProt Q9UM73)
[4] = molecular target: CAMK1D (human) (UniProt Q8IU85)
[5] = molecular target: CAMK4 (human) (UniProt Q16566)
[6] = molecular target: CDK4 CCND3 (human) (UniProt P30281+P11802)
[7] = molecular target: CSF1R (human) (UniProt P07333)
[8] = molecular target: DYRK3 (human) (UniProt O43781)
[9] = molecular target: EPHA1 (human) (UniProt P21709)
[10] = molecular target: EPHA3 (human) (UniProt P29320)
[11] = molecular target: EPHA7 (human) (UniProt Q15375)
[12] = molecular target: FLT1 (human) (UniProt P17948)
Sequence of FLT1 (human) (P17948 whole entry, looked up): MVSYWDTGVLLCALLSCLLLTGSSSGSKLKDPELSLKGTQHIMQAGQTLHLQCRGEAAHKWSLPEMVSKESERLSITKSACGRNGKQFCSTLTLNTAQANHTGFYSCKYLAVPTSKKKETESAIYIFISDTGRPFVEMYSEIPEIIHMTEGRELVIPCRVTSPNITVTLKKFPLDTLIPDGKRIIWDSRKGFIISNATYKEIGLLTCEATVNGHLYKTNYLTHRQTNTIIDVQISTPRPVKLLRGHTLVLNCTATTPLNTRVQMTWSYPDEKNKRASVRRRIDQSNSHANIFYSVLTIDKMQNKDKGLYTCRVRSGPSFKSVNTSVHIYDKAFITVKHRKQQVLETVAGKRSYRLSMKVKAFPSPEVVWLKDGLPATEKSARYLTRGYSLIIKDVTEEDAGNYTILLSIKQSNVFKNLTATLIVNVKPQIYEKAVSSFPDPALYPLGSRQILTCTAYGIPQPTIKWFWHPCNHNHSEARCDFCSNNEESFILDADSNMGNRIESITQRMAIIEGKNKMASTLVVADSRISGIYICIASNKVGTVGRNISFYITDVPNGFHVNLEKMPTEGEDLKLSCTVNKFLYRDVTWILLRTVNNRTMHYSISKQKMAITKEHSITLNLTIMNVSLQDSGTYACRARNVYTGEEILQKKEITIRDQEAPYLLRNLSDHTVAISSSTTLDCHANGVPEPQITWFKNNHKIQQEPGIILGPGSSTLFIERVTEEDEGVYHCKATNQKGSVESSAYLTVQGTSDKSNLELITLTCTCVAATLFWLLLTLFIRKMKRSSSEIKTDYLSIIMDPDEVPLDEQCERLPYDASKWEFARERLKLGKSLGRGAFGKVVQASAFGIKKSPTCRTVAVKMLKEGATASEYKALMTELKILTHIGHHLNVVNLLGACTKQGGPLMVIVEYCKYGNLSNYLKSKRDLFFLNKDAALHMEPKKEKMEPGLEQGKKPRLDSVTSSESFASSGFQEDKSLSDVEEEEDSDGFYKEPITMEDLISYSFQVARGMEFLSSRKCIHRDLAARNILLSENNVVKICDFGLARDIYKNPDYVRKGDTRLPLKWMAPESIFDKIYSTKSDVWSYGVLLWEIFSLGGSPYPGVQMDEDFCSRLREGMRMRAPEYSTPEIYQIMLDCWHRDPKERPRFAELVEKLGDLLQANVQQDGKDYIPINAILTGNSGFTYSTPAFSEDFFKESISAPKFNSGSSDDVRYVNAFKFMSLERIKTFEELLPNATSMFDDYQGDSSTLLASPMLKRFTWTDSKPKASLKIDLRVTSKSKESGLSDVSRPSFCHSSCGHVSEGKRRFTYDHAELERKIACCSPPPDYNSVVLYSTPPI

[13] = molecular target: FRK (human) (UniProt P42685)
Sequence of FRK (human) (P42685 whole entry, looked up): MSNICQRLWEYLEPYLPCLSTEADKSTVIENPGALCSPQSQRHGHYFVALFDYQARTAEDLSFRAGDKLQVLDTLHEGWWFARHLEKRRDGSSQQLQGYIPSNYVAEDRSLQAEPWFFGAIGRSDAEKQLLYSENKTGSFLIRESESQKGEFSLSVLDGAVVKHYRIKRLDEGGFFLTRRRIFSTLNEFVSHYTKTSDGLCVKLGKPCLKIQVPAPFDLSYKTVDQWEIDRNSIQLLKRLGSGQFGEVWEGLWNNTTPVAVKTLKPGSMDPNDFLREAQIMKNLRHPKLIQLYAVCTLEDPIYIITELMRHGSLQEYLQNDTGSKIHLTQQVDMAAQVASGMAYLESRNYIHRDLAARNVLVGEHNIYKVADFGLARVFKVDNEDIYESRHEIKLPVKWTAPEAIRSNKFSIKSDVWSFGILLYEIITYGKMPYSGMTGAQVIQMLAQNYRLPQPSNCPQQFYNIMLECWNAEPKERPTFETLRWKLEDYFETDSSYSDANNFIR

[14] = molecular target: GRK7 (human) (UniProt Q8WTQ7)
[15] = molecular target: GSG2 (human) (UniProt Q8TF76)
[16] = molecular target: GSK3A (human) (UniProt P49840)
[17] = molecular target: HIPK2 (human) (UniProt Q9H2X6)
[18] = molecular target: MAP4K5 (human) (UniProt Q9Y4K4)
[19] = molecular target: MAPKAPK3 (human) (UniProt Q16644)
[20] = molecular target: MAPKAPK5 (human) (UniProt Q8IW41)
[21] = molecular target: MARK1 (human) (UniProt Q9P0L2)
[22] = molecular target: MST1R (human) (UniProt Q04912)
[23] = molecular target: MUSK (human) (UniProt O15146)
[24] = molecular target: NEK9 (human) (UniProt Q8TD19)
[25] = molecular target: NLK (human) (UniProt Q9UBE8)
[26] = molecular target: OXSR1 (human) (UniProt O95747)
[27] = molecular target: PAK4 (human) (UniProt O96013)
[28] = molecular target: PHKG1 (human) (UniProt Q16816)
[29] = molecular target: PKN2 (human) (UniProt Q16513)
[30] = molecular target: PRKCZ (human) (UniProt Q05513)
Sequence of PRKCZ (human) (Q05513 whole entry, looked up): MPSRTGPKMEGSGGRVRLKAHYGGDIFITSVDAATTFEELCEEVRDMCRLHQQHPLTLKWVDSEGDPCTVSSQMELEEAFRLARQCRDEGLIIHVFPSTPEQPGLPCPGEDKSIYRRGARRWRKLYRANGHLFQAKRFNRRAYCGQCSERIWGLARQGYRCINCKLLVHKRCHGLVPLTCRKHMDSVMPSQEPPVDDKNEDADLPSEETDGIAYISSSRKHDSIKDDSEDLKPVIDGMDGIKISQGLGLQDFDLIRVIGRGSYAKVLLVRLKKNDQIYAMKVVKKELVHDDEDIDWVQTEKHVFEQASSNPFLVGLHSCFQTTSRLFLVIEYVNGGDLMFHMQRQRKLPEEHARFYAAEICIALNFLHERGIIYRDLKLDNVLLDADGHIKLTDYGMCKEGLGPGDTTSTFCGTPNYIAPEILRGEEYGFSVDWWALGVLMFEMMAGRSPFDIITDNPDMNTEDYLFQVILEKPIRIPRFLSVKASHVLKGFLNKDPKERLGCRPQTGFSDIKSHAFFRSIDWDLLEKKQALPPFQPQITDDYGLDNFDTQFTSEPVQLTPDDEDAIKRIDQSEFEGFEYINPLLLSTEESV

[31] = molecular target: ROS1 (human) (UniProt P08922)
[32] = molecular target: RPS6KA6 KD1 KD2 (human) (UniProt Q9UK32)
Sequence of RPS6KA6 KD1 KD2 (human) (Q9UK32 whole entry, looked up): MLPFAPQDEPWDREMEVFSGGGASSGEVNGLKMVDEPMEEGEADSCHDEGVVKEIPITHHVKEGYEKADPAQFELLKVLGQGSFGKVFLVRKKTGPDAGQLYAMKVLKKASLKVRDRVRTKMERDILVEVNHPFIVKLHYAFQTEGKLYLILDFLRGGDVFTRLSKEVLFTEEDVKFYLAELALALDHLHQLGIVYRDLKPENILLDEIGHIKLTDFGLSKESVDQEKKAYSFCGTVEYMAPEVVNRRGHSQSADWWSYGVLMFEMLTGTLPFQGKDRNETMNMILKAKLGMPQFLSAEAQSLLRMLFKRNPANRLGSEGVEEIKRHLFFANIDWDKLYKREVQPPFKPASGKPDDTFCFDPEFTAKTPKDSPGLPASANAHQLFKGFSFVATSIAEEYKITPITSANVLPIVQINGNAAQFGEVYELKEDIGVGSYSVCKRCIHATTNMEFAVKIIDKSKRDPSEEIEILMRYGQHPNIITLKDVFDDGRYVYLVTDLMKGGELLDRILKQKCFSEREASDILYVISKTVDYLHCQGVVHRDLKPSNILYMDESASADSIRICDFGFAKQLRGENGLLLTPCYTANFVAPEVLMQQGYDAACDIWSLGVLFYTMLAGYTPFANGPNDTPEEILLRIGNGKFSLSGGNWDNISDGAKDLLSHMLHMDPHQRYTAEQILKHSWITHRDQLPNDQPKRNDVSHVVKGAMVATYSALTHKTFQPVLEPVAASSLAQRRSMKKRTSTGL

[33] = molecular target: STK33 (human) (UniProt Q9BYT3)
[34] = molecular target: STK39 (human) (UniProt Q9UEW8)
[35] = molecular target: TAOK1 (human) (UniProt Q7L7X3)
[36] = molecular target: TAOK2 (human) (UniProt Q9UL54)
[37] = molecular target: TEC (human) (UniProt P42680)
[38] = molecular target: TSSK1B (human) (UniProt Q9BXA7)
[39] = molecular target: ZAP70 (human) (UniProt P43403)

Sequence of ALK (human) (Q9UM73 whole entry, looked up): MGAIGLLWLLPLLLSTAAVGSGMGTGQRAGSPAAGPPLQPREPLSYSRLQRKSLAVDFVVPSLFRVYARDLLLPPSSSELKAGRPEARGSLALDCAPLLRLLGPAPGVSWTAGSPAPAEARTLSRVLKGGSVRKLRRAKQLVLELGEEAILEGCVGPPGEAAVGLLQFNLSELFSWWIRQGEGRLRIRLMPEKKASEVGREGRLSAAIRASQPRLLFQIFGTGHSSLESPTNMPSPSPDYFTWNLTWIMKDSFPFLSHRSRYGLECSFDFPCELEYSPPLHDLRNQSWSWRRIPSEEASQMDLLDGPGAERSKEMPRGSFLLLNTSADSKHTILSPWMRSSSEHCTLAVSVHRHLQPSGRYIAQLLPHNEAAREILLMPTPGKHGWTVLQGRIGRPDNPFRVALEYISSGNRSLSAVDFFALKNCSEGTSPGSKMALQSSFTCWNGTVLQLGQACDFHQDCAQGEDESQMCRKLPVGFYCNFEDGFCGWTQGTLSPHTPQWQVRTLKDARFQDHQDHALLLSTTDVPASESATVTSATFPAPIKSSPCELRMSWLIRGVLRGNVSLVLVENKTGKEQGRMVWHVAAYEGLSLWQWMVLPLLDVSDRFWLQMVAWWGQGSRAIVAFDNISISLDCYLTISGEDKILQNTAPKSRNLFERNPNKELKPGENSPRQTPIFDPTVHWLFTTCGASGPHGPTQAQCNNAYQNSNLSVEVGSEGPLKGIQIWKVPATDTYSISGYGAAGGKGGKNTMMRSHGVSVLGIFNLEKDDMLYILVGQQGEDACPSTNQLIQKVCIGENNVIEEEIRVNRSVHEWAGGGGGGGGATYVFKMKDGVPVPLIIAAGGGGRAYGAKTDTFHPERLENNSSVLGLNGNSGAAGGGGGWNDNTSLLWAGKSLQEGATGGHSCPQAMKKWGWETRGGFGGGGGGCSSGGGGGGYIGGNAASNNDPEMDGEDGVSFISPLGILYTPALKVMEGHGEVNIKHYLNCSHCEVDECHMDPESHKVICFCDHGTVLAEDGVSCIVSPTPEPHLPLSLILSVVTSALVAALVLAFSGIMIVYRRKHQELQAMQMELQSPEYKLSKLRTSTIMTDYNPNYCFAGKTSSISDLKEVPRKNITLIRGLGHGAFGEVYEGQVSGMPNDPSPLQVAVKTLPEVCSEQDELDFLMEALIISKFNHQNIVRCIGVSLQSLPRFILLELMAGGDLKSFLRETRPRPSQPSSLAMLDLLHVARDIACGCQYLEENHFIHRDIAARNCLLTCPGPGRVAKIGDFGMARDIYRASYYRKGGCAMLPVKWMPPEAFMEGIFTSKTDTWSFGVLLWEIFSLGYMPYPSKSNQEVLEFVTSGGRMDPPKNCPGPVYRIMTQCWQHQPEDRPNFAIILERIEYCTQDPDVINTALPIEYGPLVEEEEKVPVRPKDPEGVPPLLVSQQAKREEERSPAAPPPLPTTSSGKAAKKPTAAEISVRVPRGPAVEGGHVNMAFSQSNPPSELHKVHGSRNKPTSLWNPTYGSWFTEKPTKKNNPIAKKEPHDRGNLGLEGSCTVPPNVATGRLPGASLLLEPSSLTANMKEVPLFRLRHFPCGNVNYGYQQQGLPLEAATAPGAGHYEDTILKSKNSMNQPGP

Structure (SMILES): COc1cc2ncnc(Nc3ccc(F)c(Cl)c3)c2cc1OCCCN1CCOCC1
- residual activity [1]: 96.9%
- residual activity [2]: 94.1%
- residual activity [3]: 98.8%
- residual activity [4]: 88.6%
- residual activity [5]: 93.3%
- residual activity [6]: 101%
- residual activity [7]: 110%
- residual activity [8]: 85%
- residual activity [9]: 87.4%
- residual activity [10]: 94.4%
- residual activity [11]: 74.3%
- residual activity [12]: 98.3%
- residual activity [13]: 97.9%
- residual activity [14]: 96.2%
- residual activity [15]: 84%
- residual activity [16]: 99.7%
- residual activity [17]: 99.7%
- residual activity [18]: 80%
- residual activity [19]: 99.6%
- residual activity [20]: 92.7%
- residual activity [21]: 116%
- residual activity [22]: 97.7%
- residual activity [23]: 98.1%
- residual activity [24]: 99.3%
- residual activity [25]: 91.1%
- residual activity [26]: 101%
- residual activity [27]: 90.2%
- residual activity [28]: 68.8%
- residual activity [29]: 93.1%
- residual activity [30]: 92.5%
- residual activity [31]: 92.3%
- residual activity [32]: 95.2%
- residual activity [33]: 90.4%
- residual activity [34]: 93.5%
- residual activity [35]: 103%
- residual activity [36]: 106%
- residual activity [37]: 104%
- residual activity [38]: 90%
- residual activity [39]: 96.5%

Reference: the kinase profiling compilation of Christmann-Franck et al. (2016)
